Reference: patent publication EP0396024A2, “Esters, medicaments containing them and preparation of these esters and medicaments” (Grünenthal GmbH, priority 1989, dated 1990)

How the values were obtained:
Ratten = assay: Mean arterial blood pressure in pentobarbital-anaesthetised rats, 10 min i.v. infusion as lipid emulsion; type: in vivo; conditions: mean arterial pressure in % of baseline, mean of 4 rats
Description: So wurde an durch intraperitoneale Injektion von 60 mg/kg Natriumpentobarbital narkotisierten Ratten über einen Carotis-Katheter mit Hilfe eines Druckübermittlers der Blutdruck überwacht. Den Tieren (in Gruppen von je 4 Tieren) wurden dann für jeweils 10 Minuten über einen in die rechte vena femoralis eingesetzten Katheter • 1) 10,0 µg/kg/min der Verbindung A (R₁ = H) • 2) 9,6 µg/kg/min der Verbindung B (R₁ = H) • 3) 6,2 µg/kg/min des Esters der Formel I (X = 0) bzw. • 4) 10,5 µg/kg/min des Esters der Formel I (X = CH₂) injiziert, wobei diese Verbindungen in Form einer Lipidemulsion (vgl. Mizushima et al. J. Pharm. Pharmacol. 34 (1982) 49 - 50 und Ann. Rheum. Dis. 41 (1982) 263 - 267) zur Anwendung kamen. Dabei ergaben sich fol gende Werte des mittleren arteriellen Blutdrucks (in % des Ausgangswertes; jeweils als Mittelwert für die Tiere einer Gruppe): […]

[1] = tested on: ADP-induzierten Thrombozytenaggregation; assay: ADP-induced platelet aggregation (platelet count fall) in the urethane-anaesthetised rat after oral dosing; type: in vivo, Ratte; conditions: 100 µg/kg ADP i.v. bolus
Description: Zur Bestimmung der ADP-induzierten Thrombozytenaggregation an der Urethan-narkotisierten Ratte nach oraler Gabe der Vergleichssubstanzen wurde den Tieren ein Carotis-Katheter eingesetzt und über diesen kontinuierlich Blut entnommen. Nach Zumischen von Natriumzitrat wurde in einem Technicon-Thrombocounter die Thrombozytenzahl bestimmt. 15 Minuten und unmittelbar vor der Gabe der Prüfsubstanz sowie 15, 30, 45 und 60 min. nach der Prüfsubstanzgabe wurden über die vena jugularis jeweils 100 µg/kg ADP als Bolus injiziert und der Thrombozytenabfall unter der ADP-Injektion bestimmt. Der Mittelwert der beiden Werte vor der Prüfsubstanzgabe wurde als Ausgangs-Kontrollwert genommen und die Werte nach Prüfsubstanzgabe als %-Änderung gegenüber diesem Wert bestimmt.

[2] = tested on: menschlichen Blutplättchen; conditions: aggregation induced by various agents; compared with natural Prostacyclin; cited from earlier work
Hunden = conditions: dogs; potency in % of the free acid; cited from earlier work
[3] = tested on: durch ADP induzierten Blutplättchenaggregation; conditions: rat plasma; in % of the effect of the free acid; cited from earlier work
[4] = 15 min after oral dose of 10 mg/kg
[5] = 30 min after oral dose of 10 mg/kg
[6] = 45 min after oral dose of 10 mg/kg
[7] = 60 min after oral dose of 10 mg/kg

O=C(O)c1cccc(/C=C2/C[C@@H]3[C@@H](/C=C/[C@@H](O)C4CCCCC4)[C@H](O)C[C@@H]3O2)c1 (relative stereo) [A (R₁ = H), 2-Oxa-3Z-(m-carboxybenzyliden)-6β-(3′-S-hydroxy-3′cyclohexyl-1′E-propenyl)-7α-hydroxy-cis-bicyclo[3.3.0] octan, reference compound]
Relativer Blutdruck (%) Minuten nach Injektionsbeginn (Ratten; 5 min, 10,0 µg/kg/min i.v. for 10 min): 64%
Relativer Blutdruck (%) Minuten nach Injektionsbeginn (Ratten; 10 min, 10,0 µg/kg/min i.v. for 10 min): 65%
Relativer Blutdruck (%) Minuten nach Injektionsbeginn (Ratten; 20 min, 10,0 µg/kg/min i.v. for 10 min): 94%

O=C(O)c1cccc(/C=C2\C[C@H]3C[C@@H](O)[C@H](/C=C/[C@@H](O)C4CCCCC4)[C@H]3C2)c1 (relative stereo) [B(R₁=H), 3E-(m-Carboxybenzyliden)-6β-(3′S-hydroxy-3′-cyclohexyl-1′E-propenyl)-7α-hydroxy-cis-bicyclo-[3.3.0]octan, reference compound]
Relativer Blutdruck (%) Minuten nach Injektionsbeginn (Ratten; 5 min, 9,6 µg/kg/min i.v. for 10 min): 80%
Relativer Blutdruck (%) Minuten nach Injektionsbeginn (Ratten; 10 min, 9,6 µg/kg/min i.v. for 10 min): 84%
Relativer Blutdruck (%) Minuten nach Injektionsbeginn (Ratten; 20 min, 9,6 µg/kg/min i.v. for 10 min): 105%
Thrombozytenaggregationshemmung in % des Ausgangskontrollwertes nach Minuten [1, 4]: 68,9±6,8%
Thrombozytenaggregationshemmung in % des Ausgangskontrollwertes nach Minuten [1, 5]: 55,1±6,7%
Thrombozytenaggregationshemmung in % des Ausgangskontrollwertes nach Minuten [1, 6]: 51,8±6,4%
Thrombozytenaggregationshemmung in % des Ausgangskontrollwertes nach Minuten [1, 7]: 38,1±6,3%

CCCCCC(O)C#CC1C(O)CC2OC(=CCCCC(=O)OC)CC21 (stereo not drawn) [13,14-Dehydroprostacyclinmethylester]
Aggregationshemmung von menschlichen Blutplättchen [2]: ähnlich wirksam

CC(C)(C)C(=O)OCOC(=O)c1cccc(/C=C2/C[C@@H]3[C@@H](/C=C/[C@@H](O)C4CCCCC4)[C@H](O)C[C@@H]3O2)c1 [I (X = 0), 2-Oxa-3Z-(m-pivaloyloxymethyloxycarbonyl-benzyliden)-6β-(3′S-hydroxy-3′-cyclohexyl-1′E-propenyl)-7α-hydroxy-cis-bicyclo[3.3.0]octan]
Relativer Blutdruck (%) Minuten nach Injektionsbeginn (Ratten; 5 min, 6,2 µg/kg/min i.v. for 10 min): 58%
Relativer Blutdruck (%) Minuten nach Injektionsbeginn (Ratten; 10 min, 6,2 µg/kg/min i.v. for 10 min): 62%
Relativer Blutdruck (%) Minuten nach Injektionsbeginn (Ratten; 20 min, 6,2 µg/kg/min i.v. for 10 min): 81%

CC(C)(C)C(=O)OCOC(=O)c1cccc(/C=C2\C[C@H]3C[C@@H](O)[C@H](/C=C/[C@@H](O)C4CCCCC4)[C@H]3C2)c1 [I(X=CH₂), 3E-(m-Pivaloyloxymethyloxycarbonyl-benzyliden)-6β-(3′S-hydroxy-3′-cyclohexyl-1′E-propenyl)-7α hydroxy-cis-bicyclo[3.3.0]octan]
Relativer Blutdruck (%) Minuten nach Injektionsbeginn (Ratten; 5 min, 10,5 µg/kg/min i.v. for 10 min): 62%
Relativer Blutdruck (%) Minuten nach Injektionsbeginn (Ratten; 10 min, 10,5 µg/kg/min i.v. for 10 min): 51%
Relativer Blutdruck (%) Minuten nach Injektionsbeginn (Ratten; 20 min, 10,5 µg/kg/min i.v. for 10 min): 69%
Thrombozytenaggregationshemmung in % des Ausgangskontrollwertes nach Minuten [1, 4]: 24,0±3,0%
Thrombozytenaggregationshemmung in % des Ausgangskontrollwertes nach Minuten ([1]; 15 min after oral dose of 100 mg/kg): 59,4±3,0%
Thrombozytenaggregationshemmung in % des Ausgangskontrollwertes nach Minuten [1, 5]: 28,1±3,8%
Thrombozytenaggregationshemmung in % des Ausgangskontrollwertes nach Minuten ([1]; 30 min after oral dose of 100 mg/kg): 63,3±6,8%
Thrombozytenaggregationshemmung in % des Ausgangskontrollwertes nach Minuten [1, 6]: 29,1±3,9%
Thrombozytenaggregationshemmung in % des Ausgangskontrollwertes nach Minuten ([1]; 45 min after oral dose of 100 mg/kg): 68,1±2,0%
Thrombozytenaggregationshemmung in % des Ausgangskontrollwertes nach Minuten [1, 7]: 30,3±4,6%
Thrombozytenaggregationshemmung in % des Ausgangskontrollwertes nach Minuten ([1]; 60 min after oral dose of 100 mg/kg): 71,0±4,4%

CCCCCC(O)/C=C/C1C(O)CC2CC(=CCCCC(=O)OC)CC21 (stereo not drawn) [Methylester der (5EZ,13E)(9α,11α,15α)-6,9-methano-11,15-dihydroxyprosta-5,13-diensäure]
Wirkung auf den Blutdruck, relativ zur freien Säure (Hunden): 50 - 60%
Hemmung der durch ADP induzierten Blutplättchenaggregation, Wirkung relativ zur freien Säure [3]: ~80%
